Measurements from the supplement of paper PMC4121296.

How the values were obtained:
Conditions in all cases: exposure: 5-72 hpf
[1] = test system: Danio rerio embryo (fli1:egfp); test: pericardial area at 72 hpf (image area units (not stated)); higher = larger pericardial area (edema)
Protocol: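 fli1:egfp zebrafish embryos exposed 5-72 hpf to chemical (0.05-50 µM, 0.1% DMSO); pericardial area at 72 hpf measured by semi-automated MetaXpress journal (increase indicates edema).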

[2] = test system: Danio rerio embryo (fli1:egfp); test: body length at 72 hpf (µm); higher = longer body (less growth inhibition)
Protocol: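 Transgenic fli1:egfp zebrafish embryos (one per well, 384-well plate) exposed statically from 5 to 72 hpf at 28 °C to chemical (0.05-50 µM, 0.1% DMSO); at 72 hpf anesthetized and imaged on ImageXpress; body length of live, hatched, correctly oriented embryos measured by automated MetaXpress journal. Dead/unhatched/misoriented embryos have no value.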

[3] = test system: Danio rerio embryo (fli1:egfp); test: intersegmental vessel area normalized to body length at 72 hpf (ISV area / body length (normalized units)); higher = more vessel area
Protocol: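 fli1:egfp zebrafish embryos exposed 5-72 hpf to chemical (0.05-50 µM, 0.1% DMSO); intersegmental vessel (ISV) eGFP area quantified by MetaXpress journal at 72 hpf and normalized to body length.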

[4] = test system: Danio rerio embryo (fli1:egfp); test: arterial (dorsal aorta) circulation score at 72 hpf (normalized DA-Max (arbitrary units)); higher = more circulation
Protocol: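 fli1:egfp zebrafish embryos exposed 5-72 hpf to chemical (0.05-50 µM, 0.1% DMSO); arterial circulation at 72 hpf quantified from stream acquisitions of the dorsal aorta by FFT-based analysis (DA-Max, normalized dorsal aorta signal); only concentrations passing survival/body-length criteria analyzed.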

[5] = test system: Danio rerio embryo (fli1:egfp); test: heart rate at 72 hpf (beats per minute); higher = faster heart rate
Protocol: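 fli1:egfp zebrafish embryos exposed 5-72 hpf to chemical (0.05-50 µM, 0.1% DMSO) in 384-well plates; heart rate at 72 hpf quantified from stream acquisitions by semi-automated MetaXpress journal (peak counting); only embryos in concentrations passing survival/body-length criteria analyzed.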

CC(C)Oc1cc(-n2nc(C(C)(C)C)oc2=O)c(Cl)cc1Cl [Oxadiazon]
Conditions | arterial, [4] | body length at 72 hpf, [2] | heart rate at 72 hpf, [5] | intersegmental vessel area normalized, [3] | pericardial area at 72 hpf, [1]
0.05 µM | 14.6 | 3090 | 179 | 85.1 | 14800
0.098 µM | 14 | 3060 | 184 | 88.1 | 13700
0.195 µM | 13.8 | 3090 | 190 | 90.3 | 15400
0.39 µM | 14.5 | 3060 | 186 | 82.3 | 15400
0.78 µM | 13.1 | 3040 | 182 | 82.4 | 16500
1.56 µM | 15.4 | 2950 | 183 | 83.4 | 14900
3.125 µM | 13.2 | 3060 | 188 | 85.6 | 15800
6.25 µM | 14.1 | 3120 | 190 | 90.4 | 16000
12.5 µM | 11.5 | 3000 | 181 | 94.5 | 17300
25 µM | 9.56 | 2960 | 155 | 90.2 | 16800

CC1(C)C(C=C(Cl)Cl)C1C(=O)OC(C#N)c1ccc(F)c(Oc2ccccc2)c1 (stereo not given) [Cyfluthrin]
Conditions | arterial, [4] | body length at 72 hpf, [2] | heart rate at 72 hpf, [5] | intersegmental vessel area normalized, [3] | pericardial area at 72 hpf, [1]
0.05 µM | 14.9 | 3010 | 185 | 80.1 | 16100
0.098 µM | 14.7 | 3040 | 187 | 71.9 | 14000
0.195 µM | 16.3 | 3030 | 188 | 80.3 | 12900
0.39 µM | 12.4 | 3070 | 193 | 83.3 | 13300
0.78 µM | 9.66 | 3020 | 202 | 71.9 | 14900
1.56 µM | 13 | 2900 | 198 | 78.4 | 16800
3.125 µM | 14.7 | 2790 | 190 | 92.3 | 16900
6.25 µM | – | 2620 | – | – | –

COC(=O)N(C(=O)N1CO[C@@]2(C(=O)OC)Cc3cc(Cl)ccc3C2=N1)c1ccc(OC(F)(F)F)cc1 [Indoxacarb]
Conditions | arterial, [4] | body length at 72 hpf, [2] | heart rate at 72 hpf, [5] | intersegmental vessel area normalized, [3] | pericardial area at 72 hpf, [1]
0.05 µM | 9.56 | 2980 | 169 | 81.5 | 14200
0.098 µM | 10.3 | 3010 | 171 | 81.7 | 13400
0.195 µM | 10.5 | 2970 | 176 | 85.7 | 15600
0.39 µM | 8.96 | 2950 | 183 | 80.7 | 13200
0.78 µM | 8.19 | 2990 | 185 | 80.1 | 14100
1.56 µM | 10.8 | 2960 | 181 | 85.1 | 12300
3.125 µM | 9.26 | 3010 | 194 | 83.8 | 12700
6.25 µM | 10.5 | 3020 | 188 | 87.7 | 13000
12.5 µM | 14.1 | 2900 | 181 | 70.6 | 14200

C#CCOC(=O)[C@@H](C)Oc1ccc(Oc2ncc(Cl)cc2F)cc1 [Clodinafop-propargyl]
Conditions | arterial, [4] | body length at 72 hpf, [2] | heart rate at 72 hpf, [5] | intersegmental vessel area normalized, [3] | pericardial area at 72 hpf, [1]
0.0244 µM | 11.8 | 3010 | 177 | 65.9 | 14100
0.05 µM | 14.5 | 2990 | 168 | 84.8 | 13100
0.098 µM | 12.3 | 2960 | 173 | 79 | 12900
0.195 µM | 16.7 | 3060 | 183 | 76.8 | 13800
0.39 µM | 14.4 | 3000 | 188 | 87.1 | 15200
0.78 µM | 14.4 | 3000 | 185 | 73.6 | 15400
1.56 µM | 12 | 3030 | 190 | 84 | 13500
3.125 µM | 14.8 | 3030 | 191 | 82.7 | 12900
6.25 µM | 12.5 | 2930 | 193 | 82.8 | 12900
12.5 µM | 13.6 | 2940 | 196 | 89.6 | 13000

C=C(C)[C@H]1Cc2c(ccc3c2O[C@@H]2COc4cc(OC)c(OC)cc4[C@@H]2C3=O)O1 [Rotenone]
0.05 µM
Conditions | arterial | body length at 72 hpf | heart rate at 72 hpf | intersegmental vessel area normalized | pericardial area at 72 hpf
[1] | – | – | – | – | 18800
[2] | – | 3020 | – | – | –
[3] | – | – | – | 85.6 | –
[4] | 8.64 | – | – | – | –
[5] | – | – | 141 | – | –

CCOC(=O)COc1cc(-n2ncc(C(F)(F)F)c(C)c2=O)c(F)cc1Cl [Flufenpyr-ethyl]
Conditions | arterial, [4] | body length at 72 hpf, [2] | heart rate at 72 hpf, [5] | intersegmental vessel area normalized, [3] | pericardial area at 72 hpf, [1]
0.05 µM | 8.79 | 2990 | 169 | 84.4 | 12800
0.098 µM | 9.74 | 3000 | 178 | 70.8 | 13000
0.195 µM | 9.58 | 3040 | 181 | 75.2 | 12300
0.39 µM | 8.94 | 3080 | 180 | 77.1 | 13600
0.78 µM | 9.32 | 3020 | 186 | 74.8 | 13300
1.56 µM | 8.81 | 3020 | 182 | 75.8 | 13600
3.125 µM | 6.7 | 2950 | 181 | 82.9 | 15300
6.25 µM | 5.21 | 2810 | 166 | 83.5 | 25900

CCN(Cc1c(F)cccc1Cl)c1c([N+](=O)[O-])cc(C(F)(F)F)cc1[N+](=O)[O-] [Flumetralin]
Conditions | arterial, [4] | body length at 72 hpf, [2] | heart rate at 72 hpf, [5] | intersegmental vessel area normalized, [3]
0.05 µM | 16.7 | 3020 | 183 | 67.3
0.098 µM | 16.1 | 3080 | 174 | 74.9
0.195 µM | 16.8 | 3050 | 177 | 79.1
0.39 µM | 15 | 3010 | 176 | 72.5
0.78 µM | 15.4 | 2980 | 181 | 76.2
1.56 µM | 15.1 | 2850 | 182 | 84
3.125 µM | – | 2770 | – | –
6.25 µM | – | 2670 | – | –
12.5 µM | – | 2670 | – | –
25 µM | – | 2670 | – | –
50 µM | – | 2620 | – | –
